Measured values from US5707648A, “Transparent liquid for encapsulated drug delivery” (LDS Technologies, Inc., priority 1995, dated 1998).

Assays:
[1] = human, in vivo; cited from earlier work
plasma Factor VIII = assay: Plasma Factor VIII levels following administration of dDAVP (dDAVP Dog Study); type: in vivo, Male beagle dogs; details: dogs; capsules with 13, 43 and 125 μg dDAVP, dDAVP in dextrose, or s.c. 0.4 μg/kg
Procedure: Male beagle dogs weighing 9-12 kg were used in all experiments. Prior to each study, all animals were fasted overnight but were allowed access to water ad libitum.
Peroral administration: Enteric coated hard gelatin capsules, size 0el (0.78 ml) from [sequence], fill materials: 0.73 g of the drug delivery compositions containing:
Subcutaneous administration: 4 μg dDAVP/ml composition, 0.4 μg dDAVP/kg animal (Table 6F).
Plasma Factor VIII levels following administration of dDAVP was used as a pharmacodynamic response to the drug. Maximum response to dDAVP was determined by measuring plasma Factor VIII response levels following subcutaneous administration of dDAVP (Table 6F).
For studies involving capsule administration, a single capsule was given to each animal in each study. Blood samples were taken immediately prior to dDAVP administration (t=0), and at various times thereafter. Plasma levels of Factor VIII were determined using commercially available kits.

[2] = compared with AVP or LVP; cited from earlier work
[3] = Chemical stability of calcitonin in the formulation; type: physicochemical; details: formulation of Table 7.1
[4] = tested on: delta-class of opioid receptor; details: Vaughn et al. 1989; cited from earlier work

Molecule: NC(=O)CC[C@@H]1NC(=O)[C@H](Cc2ccccc2)NC(=O)[C@H](Cc2ccc(O)cc2)NC(=O)CCSSC[C@@H](C(=O)N2CCC[C@H]2C(=O)N[C@H](CCCN=C(N)N)C(=O)NCC(N)=O)NC(=O)[C@H](CC(N)=O)NC1=O [desmopressin]
- oral bioavailability [1]: 0.1-0.2%
- response in plasma Factor VIII levels (in words) (plasma Factor VIII): dose-dependent increase in plasma Factor VIII levels
- pressor (vasoconstricting) activities [2]: lacks the pressor (vasoconstricting) activities of AVP or LVP

Molecule: calcitonin
- chemical stability of calcitonin in the formulation [3]: chemically stable in this formulation for at least two months

Molecule: [D-Pen^2,5, PCl-Phe^4 ]-enkephalin
- interaction with the delta-class of opioid receptor [4]: interacts selectively with the delta-class of opioid receptor
